Measured values: patent US20240035063A1, “SYNTHETIC MIXED CULTURE RESEMBLING A SKIN MICROBIOME” (Evonik Operations GmbH, priority 2020, published 2024)

Key:
[1] = tested on: synthetic mixed culture resembling a skin microbiome (core microbiome model, strain mix ratio 1); assay: Anaerobic cultivation of core skin microbiome model (ratio 1) with test compound; type: cell-based; settings: ratio 1, compound added at T=0, T=22 h
Procedure: Preculture cultivation and ratio mixing is carried out as in example 1. Anaerobic cultivation is done using a BioLector [[…]-labs; Arnold-Sommerfeld-Ring 2, 52499 Baesweiler] small scale test system with MTP-48-BOH 1 plates and the anaerobic module including an external mass flow controller for nitrogen (N2). 100 μl of strain mix, according to the ratios in table 2 are added to 1 ml BHI media resulting in a starting OD600 of 0.091. Cultivation is done at 37° C., a shaking frequency of 600 rpm and under nitrogen flushing for 22 h until the process is stopped. Preculture cultivation, ratio mixing and cultivation is carried out as in example 1 or 2. Test compounds are added to the cultures at T=0, 4, 8, 12, 16, or 24 h. At the end of the cultivation samples are taken and processed as in example 1 or 2 and results are compared to non-treated cultures to evaluate the effect of the test compounds on the core microbiome model.

[2] = tested on: synthetic mixed culture resembling a skin microbiome (core microbiome model, strain mix ratio 1); assay: Aerobic cultivation of core skin microbiome model (ratio 1) with test compound, 16S rRNA sequencing; type: cell-based; settings: ratio 1, compound added at T=0, T=28 h
Procedure: Individual bacterial strains are inoculated from cryocultures to initiate preculture growth. BHI Media (110493; Merck KGaA, 64293 Darmstadt) or DSMZ media 92 or DSMZ media 535 media according to the recommendations of the German Collection of Microorganisms and Cell Cultures GmbH are used for preculture cultivation. At the end of cultivation strains are diluted to result in an optical density of OD600=1 using BHI media. These single strain cultures are mixed in defined strain ratios depending on their growth properties. Cultivation is carried out using a BioLector [[…]-labs; Arnold-Sommerfeld-Ring 2, 52499 Baesweiler] small scale test system with MTP-48-BOH 1 plates. 100 μl of strain mix, according to the ratios in table 2 are added to 1 ml BHI media in resulting in a starting OD600 of 0.091. Cultivation is done at 37° C., a shaking frequency of 600 rpm and relative humidity of 85% for 28 h until the process is stopped. At the end of cultivation OD600 is determined, and the remaining culture is centrifuged at 4° C., 5000 rpm and 5 min in an Eppendorf table centrifuge. The supernatant is discarded, and the pellet is stored at -20° C. Genomic DNA is extracted from these samples using the DNeasy PowerSoil Pro Kit [Qiagen GmbH, QIAGEN Strasse 1, 40724 Hilden]. DNA samples are analyzed by LGC Genomics GmbH [Ostendstraße 25, 12459 Berlin] using primer pair 341 F, Seq. ID NO 1, and […], Seq. ID NO 2, or library preparation and […] MiSeq for sequencing. Results are processed by LGC Genomics GmbH and mapped to an individual reference database containing the sequences of the strains which are present in the individual model. Preculture cultivation, ratio mixing and cultivation is carried out as in example 1 or 2. Test compounds are added to the cultures at T=0, 4, 8, 12, 16, or 24 h. At the end of the cultivation samples are taken and processed as in example 1 or 2 and results are compared to non-treated cultures to evaluate the effect of the test compounds on the core microbiome model.

| Compound | general trends compared with aerobic conditions [1] | relative abundance of S. aureus ([2]; vs non-treated culture) | relative abundance of S. epidermidis ([2]; vs non-treated culture) | relative abundance of S. hominis ([2]; vs non-treated culture) | shift compared to the baseline composition ([2]; vs non-treated culture) | abundance of all other species ([2]; species other than S. warneri (and S. capitis for the lysate)) | abundance of S. warneri ([2]; vs non-treated culture) | microbial diversity ([2]; vs non-treated culture) |
| --- | --- | --- | --- | --- | --- | --- | --- | --- |
| CN(CC(=O)O)C(=N)N [Creatine] | remain the same | slightly decreased | slightly increased | slightly increased | minor shift | – | – | – |
| sodium lauryl ether sulfate | remain the same | – | – | – | drastic microbial community shifts | at the expense of all other Staphylococcus species | significantly increased abundance | remarked loss of diversity |
